Results published in ChEMBL document CHEMBL5247653, “Discovery of Clinical Candidate ACT-777991, a Potent CXCR3 Antagonist for Antigen-Driven and Inflammatory Pathologies” (J Med Chem, 2023).
Activity calls are given as the source filed them. The rule behind the calls is not given here.

Key:
Cytochrome P450 3A4 = Cytochrome P450 3A4 (Homo sapiens, UniProt P08684); experiment: Competitive inhibition of CYP3A4 (unknown origin); format: ADME
[1] = molecular target: N-formyl peptide receptor 2 (Homo sapiens) (UniProt P25090); experiment: Binding affinity to FPR2 (unknown origin) at 10 uM by radioligand binding assay
Sequence of N-formyl peptide receptor 2 (Homo sapiens) (P25090 whole entry): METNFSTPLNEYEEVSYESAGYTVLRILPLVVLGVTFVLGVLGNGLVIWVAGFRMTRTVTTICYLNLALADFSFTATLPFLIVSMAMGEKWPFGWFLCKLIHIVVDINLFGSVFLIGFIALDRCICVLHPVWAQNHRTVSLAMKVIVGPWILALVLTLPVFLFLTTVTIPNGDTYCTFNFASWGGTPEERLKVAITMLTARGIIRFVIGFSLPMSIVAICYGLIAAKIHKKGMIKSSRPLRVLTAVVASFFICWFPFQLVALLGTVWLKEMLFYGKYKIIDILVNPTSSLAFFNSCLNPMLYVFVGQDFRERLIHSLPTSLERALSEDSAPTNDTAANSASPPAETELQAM

[2] = In vivo inhibition of hERG in guinea pig assessed as increase in QTc interval at 27 ug/ml, iv; format: toxicity, organism-based, Cavia porcellus; details: at 27 µg/mL
[3] = molecular target: T1, C-X-C chemokine receptor type 3 (Homo sapiens) (UniProt P49682); experiment: Binding affinity to human CXCR3 expressed in CHO-K1 cell membrane assessed as […] (Kon) using tritium-labeled ligand by […] assay; format: cell membranes; details: filed as antagonist
T1 sequence (whole entry): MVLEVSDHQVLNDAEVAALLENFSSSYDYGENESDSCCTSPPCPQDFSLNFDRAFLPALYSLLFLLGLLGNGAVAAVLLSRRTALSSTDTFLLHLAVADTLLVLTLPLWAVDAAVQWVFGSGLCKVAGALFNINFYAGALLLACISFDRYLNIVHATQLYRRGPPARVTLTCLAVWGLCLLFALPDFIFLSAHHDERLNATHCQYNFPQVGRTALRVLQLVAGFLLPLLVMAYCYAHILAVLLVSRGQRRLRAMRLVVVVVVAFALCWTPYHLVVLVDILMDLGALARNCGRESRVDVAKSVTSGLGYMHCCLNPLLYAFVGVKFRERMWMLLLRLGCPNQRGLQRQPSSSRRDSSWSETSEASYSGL

[4] = In vivo inhibition of hERG in iv dosed dog assessed as change in QRS interval; format: toxicity, organism-based, Canis lupus familiaris
[5] = Cmin in LPS-induced DBA/1 mouse plasma at 0.02 microg/g, po bid preincubated for 3 days followed by LPS stimulation for 30 mins and measured after 72 hrs by flow cytometry; format: ADME, organism-based; details: dose 0.02 µg/g, time 3 day, read-out: Cmin
[6] = molecular target: T2, C-X-C chemokine receptor type 3 (Homo sapiens, UniProt P49682); experiment: Antagonist activity at CXCR3 (unknown origin) in human T cells in venous blood assessed as receptor internalization incubated for 30 mins in presence of CXCL10 by flow cytometric analysis; format: cell-based, T cell
T2 sequence (P49682 whole entry): T1 sequence (whole entry)

[7] = Clearance in Beagle dog at 2.5 mg/kg,iv or 2.5 mg/kg, po; format: ADME, organism-based, Canis lupus familiaris; details: in vivo
[8] = Metabolic stability in rat hepatocyte assessed as M3 metabolite formation at 1 uM and measured upto 15 mins in presence of NADPH regenerating system by LC-MS/MS analysis; format: ADME, cell-based; details: hepatocytes, 0.25 h
[9] = Protein binding in rat plasma assessed as fraction unbound at 20 ug/ml using 14C-labeled ligand by rapid equilibrium dialysis; format: ADME, cell-free; details: at 20 µg/mL
[10] = AUC (0 to last) in Wistar rat at 3 mg/kg,iv or 3 mg/kg, po; format: ADME, organism-based; design: dose 3 mg/kg, route iv; details: in vivo
[11] = Cmax in Wistar rat at 3 mg/kg,iv or 3 mg/kg, po; format: ADME, organism-based; design: dose 3 mg/kg, route iv; details: in vivo
CYP3A4 = CYP3A4 (Homo sapiens, UniProt P08684); experiment: […] recombinant human CYP3A4 mediated drug metabolism in human liver microsomes assessed as intrinsic clearance at 1 uM incubated for 45 mins in presence of NADPH regenerating system by LC-MS/MS analysis; format: ADME, Microsome; details: read-out: CLH
Sequence of CYP3A4 (P08684 whole entry): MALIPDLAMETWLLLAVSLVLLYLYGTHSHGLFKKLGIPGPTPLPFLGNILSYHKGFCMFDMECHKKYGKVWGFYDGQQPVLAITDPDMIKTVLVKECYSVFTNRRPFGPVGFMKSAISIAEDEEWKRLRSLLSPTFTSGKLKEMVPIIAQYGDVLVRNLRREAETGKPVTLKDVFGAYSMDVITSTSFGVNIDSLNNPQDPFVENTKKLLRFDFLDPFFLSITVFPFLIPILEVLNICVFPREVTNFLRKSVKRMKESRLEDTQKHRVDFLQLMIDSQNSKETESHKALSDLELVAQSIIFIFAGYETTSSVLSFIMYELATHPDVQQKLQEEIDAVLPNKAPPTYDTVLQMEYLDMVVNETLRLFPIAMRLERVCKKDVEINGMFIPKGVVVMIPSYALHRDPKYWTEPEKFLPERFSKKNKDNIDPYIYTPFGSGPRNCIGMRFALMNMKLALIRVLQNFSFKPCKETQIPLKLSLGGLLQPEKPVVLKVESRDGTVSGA

[12] = Protein binding in human plasma assessed as fraction unbound at 20 ug/ml using 14C-labeled ligand by rapid equilibrium dialysis; format: ADME, cell-free; details: at 20 µg/mL
[13] = Dissociation constant, pKa of compound; format: physicochemical
[14] = Lipophilicity, log D of compound; format: physicochemical; details: octanol/water
[15] = AUC (0 to last) in Cynomolgus monkey at 1.0 mg/kg,iv or 1.25 mg/kg, po; format: ADME, organism-based, Macaca fascicularis; design: dose 1 mg/kg, route iv; details: in vivo
[16] = Protein binding in dog plasma assessed as fraction unbound at 0.1 to 300 ug/ml using 14C-labeled ligand by rapid equilibrium dialysis; format: ADME, cell-free, Canis lupus familiaris; details: at 0.1 to 300 µg/mL, dose 0.1-300 µg/ml
[17] = Total clearance in Wistar rat plasma at 0.5 mg/kg, iv; format: ADME, organism-based
[18] = molecular target: T3, C-X-C chemokine receptor type 3 (Mus musculus) (UniProt O88410); experiment: In vivo antagonist activity at CXCR3 in LPS-induced DBA/1 mouse model assessed as reduction in mouse CXCL10-mediated chemotaxis in CD8+ T cells at 0.06 microg/g, po bid preincubated for 3 days followed by LPS stimulation for 30 mins and measured after 3 days by flow cytometry; format: functional, organism-based; design: scale not given: the % may be the effect or the level left; details: T-cell, dose 0.06 µg/g, time 6.0 day
T3 sequence (whole entry): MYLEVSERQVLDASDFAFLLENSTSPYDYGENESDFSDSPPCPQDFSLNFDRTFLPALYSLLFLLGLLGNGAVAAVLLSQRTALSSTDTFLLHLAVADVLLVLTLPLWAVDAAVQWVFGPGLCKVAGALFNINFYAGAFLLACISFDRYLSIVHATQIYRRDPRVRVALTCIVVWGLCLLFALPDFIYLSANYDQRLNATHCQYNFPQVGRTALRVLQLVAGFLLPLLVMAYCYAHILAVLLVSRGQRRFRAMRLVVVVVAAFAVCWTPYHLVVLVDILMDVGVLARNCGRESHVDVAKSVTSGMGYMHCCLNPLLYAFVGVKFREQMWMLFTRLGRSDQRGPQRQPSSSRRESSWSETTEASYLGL

[19] = AUC (0 to last) in Beagle dog at 2.5 mg/kg,iv or 2.5 mg/kg, po; format: ADME, organism-based, Canis lupus familiaris; design: dose 2.5 mg/kg, route iv; details: in vivo
[20] = molecular target: T3, C-X-C chemokine receptor type 3 (Mus musculus); experiment: In vivo antagonist activity at CXCR3 in LPS-induced DBA/1 mouse model assessed as reduction in mouse CXCL10-mediated chemotaxis in CD8+ T cells at 0.02 microg/g, po bid preincubated for 3 days followed by LPS stimulation for 30 mins and measured after 3 days by flow cytometry; format: functional, organism-based; design: scale not given: the % may be the effect or the level left; details: T-cell, dose 0.02 µg/g, time 6.0 day
[21] = molecular target: T4, C-X-C chemokine receptor type 3 (Mus musculus, UniProt O88410); experiment: Antagonist activity at mouse CXCR3 expressed in CHO-K1 cells assessed as reduction in CXCL11 induced calcium flux by FLIPR method; format: cell-based
T4 sequence (O88410 whole entry): T3 sequence (whole entry)

[22] = Protein binding in rabbit plasma assessed as fraction unbound at 0.1 to 300 ug/ml using 14C-labeled ligand by rapid equilibrium dialysis; format: ADME, cell-free, Oryctolagus cuniculus; details: at 0.1 to 300 µg/mL, dose 0.1-300 µg/ml
[23] = molecular target: C-C chemokine receptor type 5 (Homo sapiens) (UniProt P51681); experiment: Binding affinity to CCR5 (unknown origin) at 10 uM by radioligand binding assay
Sequence of C-C chemokine receptor type 5 (Homo sapiens) (P51681 whole entry, looked up): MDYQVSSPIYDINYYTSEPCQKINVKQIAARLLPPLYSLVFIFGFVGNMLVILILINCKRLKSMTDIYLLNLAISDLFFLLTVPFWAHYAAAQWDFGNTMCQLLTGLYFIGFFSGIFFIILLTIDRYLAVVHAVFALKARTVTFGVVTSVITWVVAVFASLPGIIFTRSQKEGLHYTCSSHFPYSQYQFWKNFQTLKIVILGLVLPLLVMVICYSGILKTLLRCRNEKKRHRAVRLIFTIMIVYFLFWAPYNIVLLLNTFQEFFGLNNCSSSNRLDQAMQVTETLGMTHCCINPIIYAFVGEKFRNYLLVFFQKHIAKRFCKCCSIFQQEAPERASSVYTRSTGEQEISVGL

[24] = Volume of distribution at steady state in Cynomolgus monkey at 1.0 mg/kg,iv or 1.25 mg/kg, po; format: ADME, organism-based, Macaca fascicularis; details: in vivo, read-out: Vdss
[25] = Metabolic stability in human hepatocyte assessed as M1 metabolite formation at 1 uM and measured upto 15 mins in presence of NADPH regenerating system by LC-MS/MS analysis; format: ADME, cell-based; details: hepatocytes, 0.25 h
[26] = Volume of distribution at steady state in Beagle dog at 2.5 mg/kg,iv or 2.5 mg/kg, po; format: ADME, organism-based, Canis lupus familiaris; details: in vivo, read-out: Vdss
[27] = molecular target: C-X-C chemokine receptor type 6 (Homo sapiens) (UniProt O00574); experiment: Binding affinity to CXCR6 (unknown origin) at 10 uM by radioligand binding assay
Sequence of C-X-C chemokine receptor type 6 (Homo sapiens) (O00574 whole entry, looked up): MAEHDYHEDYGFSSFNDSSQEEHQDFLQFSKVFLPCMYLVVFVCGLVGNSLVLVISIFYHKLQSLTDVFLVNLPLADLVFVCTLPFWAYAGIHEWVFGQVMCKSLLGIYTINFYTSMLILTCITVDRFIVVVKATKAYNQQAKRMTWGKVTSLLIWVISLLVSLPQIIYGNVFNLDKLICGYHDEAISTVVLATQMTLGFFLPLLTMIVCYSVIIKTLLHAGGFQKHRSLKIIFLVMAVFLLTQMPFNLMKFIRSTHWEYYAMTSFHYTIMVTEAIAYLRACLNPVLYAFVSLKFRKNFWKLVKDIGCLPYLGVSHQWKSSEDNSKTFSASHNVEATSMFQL

Sequence of Cytochrome P450 3A4 (P08684 whole entry): as the sequence (P08684 whole entry) above

Question: With Cc1ncn(CC(=O)N2CCN(c3sc(C(F)(F)F)nc3-c3cnc(C(F)(F)F)nc3)C[C@H]2CCO)n1 as the compound, how does the IC50 (Cytochrome P450 3A4) read?
Answer: > 50 µM

Question: And the Activity [1]?
Answer: inactive

Question: What about the “inhibition (INH)” value [2] of the same compound?
Answer: Toxic

Question: What about the ka [3] of the same compound?
Answer: 6.6 10^6/M/s

Question: What about the “inhibition (INH)” value [4] of the same compound?
Answer: Non-Toxic

Question: And the concentration at 72 h [5]?
Answer: 99 ng/mL

Question: And the IC50 [6]?
Answer: 56.3 nM

Question: What about the clearance [7] of the same compound?
Answer: 9.5 mL/min/kg

Question: What about the Stability [8] of the same compound?
Answer: Unstable

Question: What about the fraction unbound at 20 ug/ml [9] of the same compound?
Answer: 0.12

Question: And the AUC(0-t) [10]?
Answer: 4210 ng·h/mL

Question: What about the Cmax [11] of the same compound?
Answer: 910 ng/mL

Question: What about the microsomal CLint at 1 µM (CYP3A4) of the same compound?
Answer: < 0.04 µL/min/mg

Question: And the fraction unbound at 20 ug/ml [12]?
Answer: 0.4

Question: And the pKa [13]?
Answer: 2.2

Question: And the logD [14]?
Answer: 2.3

Question: And the AUC(0-t) [15]?
Answer: 3610 ng·h/mL

Question: And the fraction unbound [16]?
Answer: 0.48

Question: What about the clearance [17] of the same compound?
Answer: 14 mL/min/kg

Question: And the Activity [18]?
Answer: 55%

Question: What about the AUC(0-t) [19] of the same compound?
Answer: 3910 ng·h/mL

Question: What about the Activity [20] of the same compound?
Answer: 45%

Question: And the IC50 [21]?
Answer: 4.4 nM

Question: And the fraction unbound [22]?
Answer: 0.1

Question: And the Activity [23]?
Answer: inactive

Question: And the Vd [24]?
Answer: 1.3 L/kg

Question: What about the Stability [25] of the same compound?
Answer: Unstable

Question: What about the Vd [26] of the same compound?
Answer: 1.5 L/kg

Question: What about the Activity [27] of the same compound?
Answer: inactive
